Laboratory results as given in PubChem BioAssay AID1963863 (Molecular Pharmacology Branch, DTP, NCI, 2024).
pIC50: −log10 of the molar value.

Test system: 931267-113-T-J1-PDC KRAS spheroid with HUVEC/MSC, viability
Test: Anticancer human tumor 931267-113-T-J1-PDC patient-derived colon adenocarcinoma cell line growth inhibition [KRAS2]
Conditions: for pIC50: curve of first compound; for viability, T/C: stronger effect = lower value
From the text: Multicellular complex tumor spheroid response to RAS pathway inhibitors in combination with a targeted agents in patient-derived cell lines with oncogenic KRAS variants from multiple cancer types
A high-throughput screen of multi-cell type tumor spheroids was designed to identify active combinations of targeted small molecules and KRAS pathway inhibitors. Complex spheroids include a stromal component modeled by human endothelial cells (HUVEC) and fibroblasts modeled by human mesenchymal stem cells (MSCs). The concentration ranges selected for each drug and investigational agent were based upon clinically achievable concentrations if the clinical Cmax of the agent was known.
Compounds. The drugs and investigational agents: BI-3406 (NSC825286), BAY-293 (NSC824723), batoprotafib (TNO155; NSC825523), sotorasib (AMG 510; NSC818433), MRTX1257 (NSC819558), elimusertib (BAY 1895344; NSC800525), molibresib (GSK525762; NSC774829), temuterkib (LY3214996; NSC803410), venetoclax (NSC766270), alisertib (NSC759677), olaparib (NSC753686), talazoparib (NSC767125), erdafitinib (NSC781556), ipatasertib (NSC767898), cabozantinib (NSC761068), nintedanib (NSC756659), abemaciclib (NSC768073), docetaxel (NSC628503), trametinib (NSC758246), and sapanisertib (NSC764658) were obtained from the National Cancer Institute (NCI) Developmental Therapeutics Program Chemical Repository. The FDA-approved anticancer drug set is available from the Developmental Therapeutics Program. […] The stock solutions were prepared in dimethyl sulfoxide (DMSO, Sigma-Aldrich, St. Louis, MO, cat. D2650) at 800-fold the tested concentration and stored at -70 degrees C prior to their use. All drugs and investigational agents were tested over a range starting from a high concentration at or near the clinical Cmax and decreasing in half-log increments. If the clinical Cmax for an agent had not been determined, the highest concentration tested was 10 microM.
Cell Culture. All cells were maintained in an incubator at 37 degrees C and 5% CO2 with 95% humidity. The PDC lines were cultured according to standard operating procedures established by the NCI PDMR (https://pdmr.cancer.gov/sops/default.htm). Briefly, all PDCs were thawed and cultured in Matrigel-coated flasks prepared with a working solution of 1X Ham's F-12 nutrient mix, without supplementation (Invitrogen, Waltham, MA, cat. 11765054), 100 U/mL penicillin-streptomycin (Invitrogen, cat. 15140122), and 2.5% Matrigel (Corning Inc., Corning, NY, cat. 354248) for the first three passages. All PDCs were cultured in complete DMEM/F-12 media containing advanced DMEM/F-12 (Invitrogen, cat. 12634028), 4.9% defined fetal bovine serum, heat inactivated (HyClone Laboratories Inc., Logan, UT, cat. SH30070.03HI), 389 ng/mL hydrocortisone (Sigma-Aldrich, cat. H4001), 9.7 ng/mL human EGF recombinant protein (Invitrogen, cat. PHG0313), 23.4 microg/mL adenine (Sigma-Aldrich, cat. A2786), 97.3 U/mL penicillin-streptomycin (Invitrogen, cat. 15140122), 1.9 mM L-glutamine (Invitrogen, cat. 25030081), and 9.7 microM Y-27632 dihydrochloride (Tocris Bioscience, Bristol, United Kingdom, cat. 1254). The PDCs were cultured in complete DMEM/F12 media without 9.7 microM Y-27632 dihydrochloride for at least two passages prior to the screen. The established cell line HOP-62 was cultured in RPMI 1640 medium, HEPES (Invitrogen, cat. 22400105) with 10% defined fetal bovine serum (HyClone Laboratories Inc., cat. SH30070.03) and 2 mM L-glutamine (Invitrogen, cat. 25030081). The pooled donor HUVEC were cultured in endothelial cell growth medium 2 (PromoCell, Heidelberg, Germany, cat. C-22011) and the hMSC were cultured in mesenchymal stem cell growth medium 2 (PromoCell, cat. C-28009). For all experiments, HUVEC and hMSC were used at passages </=5, while the malignant cell lines were used at passages </=15. […]
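Note: compound exposure lasted 7 days before the readout.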
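Throughout, for viability, T/C: 100% = DMSO vehicle control viability.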

For COc1cc2nccc(Oc3ccc(NC(=O)C4(C(=O)Nc5ccc(F)cc5)CC4)cc3)c2cc1OC + CC1OCC2(CCN(c3cnc(Sc4ccnc(N)c4Cl)c(N)n3)CC2)C1N, the pIC50 (second compound 0.1 µM) was < 5.00, the pIC50 (second compound 0.316 µM) was 5.55 and the pIC50 (second compound 1 µM) was 5.51. For the same compound, the pIC50 (second compound 3.16 µM) was 5.34, the pIC50 (second compound 10 µM) was 5.53 and the viability, T/C (second compound 0.1 µM, first compound 0.0316 µM) was 87%. The viability, T/C (second compound 0.1 µM, first compound 0.1 µM) was 116%, the viability, T/C (second compound 0.1 µM, first compound 0.316 µM) was 102% and the viability, T/C (second compound 0.1 µM, first compound 1 µM) was 88.8%. For the same compound, the viability, T/C (second compound 0.1 µM, first compound 3.16 µM) was 51.4%, the viability, T/C (second compound 0.1 µM, first compound 10 µM) was 66.6% and the viability, T/C (second compound 0.316 µM, first compound 0.0316 µM) was 81.9%. It also gave a viability, T/C (second compound 0.316 µM, first compound 0.1 µM) of 91.9%, a viability, T/C (second compound 0.316 µM, first compound 0.316 µM) of 84.9% and a viability, T/C (second compound 0.316 µM, first compound 1 µM) of 99.5%. For the same compound, the viability, T/C (second compound 0.316 µM, first compound 3.16 µM) was 45.1%, the viability, T/C (second compound 0.316 µM, first compound 10 µM) was 37.4% and the viability, T/C (second compound 1 µM, first compound 0.0316 µM) was 92.8%. For the same compound, the viability, T/C (second compound 1 µM, first compound 0.1 µM) was 95.8%, the viability, T/C (second compound 1 µM, first compound 0.316 µM) was 86.3% and the viability, T/C (second compound 1 µM, first compound 1 µM) was 88.2%. For the same compound, the viability, T/C (second compound 1 µM, first compound 3.16 µM) was 48.1%, the viability, T/C (second compound 1 µM, first compound 10 µM) was 49.5% and the viability, T/C (second compound 3.16 µM, first compound 0.0316 µM) was 78.6%. It also gave a viability, T/C (second compound 3.16 µM, first compound 0.1 µM) of 99%, a viability, T/C (second compound 3.16 µM, first compound 0.316 µM) of 91.3% and a viability, T/C (second compound 3.16 µM, first compound 1 µM) of 92.1%. The viability, T/C (second compound 3.16 µM, first compound 3.16 µM) was 57.5%, the viability, T/C (second compound 3.16 µM, first compound 10 µM) was 33.5% and the viability, T/C (second compound 10 µM, first compound 0.0316 µM) was 99.2%. It also gave a viability, T/C (second compound 10 µM, first compound 0.1 µM) of 101%, a viability, T/C (second compound 10 µM, first compound 0.316 µM) of 93.3% and a viability, T/C (second compound 10 µM, first compound 1 µM) of 86.5%. It also gave a viability, T/C (second compound 10 µM, first compound 3.16 µM) of 47.1% and a viability, T/C (second compound 10 µM, first compound 10 µM) of 30.5%.
